Laboratory results as given in patent publication US12171755B2, “PAPD5 inhibitors and methods of use thereof” (Children's Medical Center Corporation, priority 2017, dated 2024).

Biological target: T1, PAPD5 (Homo sapiens, UniProt Q8NDF8)
T1 construct: made in house
Test: High-throughput luminescence (KinaseGlo) RNA polyadenylation assay, ATP utilization by recombinant PAPD5
Format: biochemical
Conditions: Table 4 (entries of Table 5), ratio of luminescence with inhibitor to DMSO; for Fold-change determined at compound concentration 33 μM: 33 μM compound; for Fold-change determined at compound concentration 100 μM: 100 μM compound, higher = higher inhibition
Summary of the method: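 Values are ratios of inhibitor to DMSO luminescence, so larger numbers mean less ATP consumed. Screening was run in duplicate with a 2 h room-temperature reaction of recombinant PAPD5, ATP and oligo RNA substrate plus compound. Residual ATP was detected after a 10 min KinaseGlo step.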

T1 sequence (Q8NDF8 68-698 isoform Q8NDF8-5): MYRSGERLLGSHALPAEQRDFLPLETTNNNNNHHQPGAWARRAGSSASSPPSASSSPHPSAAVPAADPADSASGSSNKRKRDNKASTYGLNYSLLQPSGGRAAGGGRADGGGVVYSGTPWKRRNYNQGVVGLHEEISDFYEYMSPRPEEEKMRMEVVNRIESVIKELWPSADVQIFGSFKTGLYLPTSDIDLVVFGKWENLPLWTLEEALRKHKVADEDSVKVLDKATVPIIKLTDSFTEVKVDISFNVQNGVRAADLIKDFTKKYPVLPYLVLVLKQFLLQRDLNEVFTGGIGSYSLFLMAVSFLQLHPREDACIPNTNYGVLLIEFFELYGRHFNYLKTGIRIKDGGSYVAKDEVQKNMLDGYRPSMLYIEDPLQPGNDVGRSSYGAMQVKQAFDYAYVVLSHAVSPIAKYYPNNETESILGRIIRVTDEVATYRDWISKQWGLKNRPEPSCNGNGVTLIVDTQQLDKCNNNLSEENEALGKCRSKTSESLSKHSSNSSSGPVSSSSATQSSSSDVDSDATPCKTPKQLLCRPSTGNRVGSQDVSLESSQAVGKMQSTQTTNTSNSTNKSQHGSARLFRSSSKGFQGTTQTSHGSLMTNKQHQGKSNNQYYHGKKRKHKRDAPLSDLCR

Row | SMILES | Fold-change determined at compound concentration 33 μM | Fold-change determined at compound concentration 100 μM | Fold-change determined at compound concentration 10 μM (10 μM compound)
1 | COc1ccc(-c2[nH]nc3nc(-c4cc(Br)ccc4OC)cc(C(=O)O)c23)cc1 [Entry 179, 6-(5-bromo-2-methoxyphenyl)-3-(4-methoxyphenyl)-2H-pyrazolo[3,4-b]pyridine-4-carboxylic acid] | 1.112 | 1.309 | 
2 | Cc1ccc(-c2n[nH]c3nc(-c4ccc(O)c(O)c4)cc(C(=O)O)c23)cc1 [Entry 180, 6-(3,4-dihydroxyphenyl)-3-(p-tolyl)-1H-pyrazolo[3,4-b]pyridine-4-carboxylic acid] | 1.303 | 1.736 | 
3 | CCOc1cc(-c2cc(C(=O)O)c3c(-c4ccccc4)[nH]nc3n2)ccc1O [Entry 181, 6-(3-ethoxy-4-hydroxyphenyl)-3-phenyl-2H-pyrazolo[3,4-b]pyridine-4-carboxylic acid] | 1.124 | 1.272 | 
4 | O=C(O)c1cc(-c2ccc(C(F)(F)F)cc2)nc2n[nH]c(-c3ccccc3)c12 [Entry 182, 3-phenyl-6-[4-(trifluoromethyl)phenyl]-2H-pyrazolo[3,4-b]pyridine-4-carboxylic acid] | 1.1781 | 1.35 | 
5 | COc1ccc(-c2n[nH]c3nc(-c4cc(OC)c(OC)c(OC)c4)cc(C(=O)O)c23)cc1 [Entry 183, 3-(4-methoxyphenyl)-6-(3,4,5-trimethoxyphenyl)-1H-pyrazolo[3,4-b]pyridine-4-carboxylic acid] | 1.152 | 1.346 | 
6 | CCOC(=O)c1ccc(NC(=O)CCc2c(C)nc3c(c(C)nn3C)c2C)cc1 [Entry 184, ethyl 4-[3-(1,3,4,6-tetramethylpyrazolo[3,4-b]pyridin-5-yl)propanoylamino]benzoate] | 1.245 | 1.294 | 
7 | CCCCN(CCCC)CCCNC(=O)c1ccc2c(c1)sc1nc(-c3ccc(OC)cc3)cn12 [Entry 186, N-[3-(dibutylamino)propyl]-2-(4-methoxyphenyl)imidazo[2,1-b][1,3]benzothiazole-7-carboxamide] | 1.163 | 1.531 | 
8 | Cc1ccc(-c2cn3c(n2)sc2ccc(C(=O)NCCCN4CCCCCC4)cc23)cc1 [Entry 187, N-[3-(azepan-1-yl)propyl]-2-(4-methylphenyl)imidazo[2,1-b][1,3]benzothiazole-6-carboxamide] | 1.108 | 1.262 | 
9 | COC(=O)c1cnn2c(=O)cc(CS(=O)(=O)c3ccc(C)cc3C)[nH]c12 [Entry 188, Methyl 5-{[(2,4-dimethylphenyl)sulfonyl]methyl}-7-oxo-4,7-dihydropyrazolo[1,5-a]pyrimidine-3-carboxylate] | 1.089 | 1.29 | 
10 | Cc1ccc(C(=O)Nc2c(-c3ccccc3)nc3ccccn23)cc1C [Entry 189, 3,4-dimethyl-N-(2-phenylimidazo[1,2-a]pyridin-3-yl)benzamide] | 1.206 | 1.311 | 
11 | Cc1ccc(C(=O)Nc2c(-c3ccccc3)nc3ccccn23)cc1 [Entry 190, 4-methyl-N-(2-phenylimidazo[1,2-a]pyridin-3-yl)benzamide] | 1.309 | 1.482 | 1.214
12 | O=C(Nc1c(-c2ccccc2)nc2ccccn12)c1ccc(Br)cc1 [Entry 191, 4-bromo-N-(2-phenylimidazo[1,2-a]pyridin-3-yl)benzamide] | 1.225 | 1.296 | 
13 | O=C(O)c1ccc(Nc2c(-c3cc(Br)ccc3O)nc3cnccn23)cc1 [Entry 192, 4-{[2-(5-bromo-2-hydroxyphenyl)imidazo[1,2-a]pyrazin-3-yl]amino}benzoic acid] | 1.106 | 1.419 | 
14 | O=C(O)c1cccc(Nc2c(-c3cc(Br)ccc3O)nc3cnccn23)c1 [Entry 193, 3-{[2-(5-bromo-2-hydroxyphenyl)imidazo[1,2-a]pyrazin-3-yl]amino}benzoic acid] | 1.134 | 1.446 | 
15 | COc1ccc(C2CC(=O)N3CN(C4CCCCC4)CSC3=C2C#N)cc1 (centres unmarked) [Entry 194, 3-cyclohexyl-8-(4-methoxyphenyl)-6-oxo-3,4,7,8-tetrahydro-2H,6H-pyrido[2,1-b][1,3,5]thiadiazine-9-carbonitrile] | 1.323 | 1.613 | 
16 | CC(C)c1ccc(C2CC(=O)N3CN(C4CCCCC4)CSC3=C2C#N)cc1 (centres unmarked) [Entry 195, 3-cyclohexyl-6-oxo-8-(4-propan-2-ylphenyl)-2,4,7,8-tetrahydropyrido[2,1-b][1,3,5]thiadiazine-9-carbonitrile] | 1.072 | 1.228 | 
17 | N#CC1=C2SCN(C3CCCCC3)CN2C(=O)CC1c1ccc(Br)cc1 (centres unmarked) [Entry 196, 8-(4-bromophenyl)-3-cyclohexyl-6-oxo-3,4,7,8-tetrahydro-2H,6H-pyrido[2,1-b][1,3,5]thiadiazine-9-carbonitrile] | 1.09 | 1.326 | 
18 | COc1cc(C2CC(=O)Nc3c2sc(C(=O)O)c3-c2cccc(F)c2)ccc1OCC(N)=O (centres unmarked) [Entry 197, 7-[4-(2-amino-2-oxoethoxy)-3-methoxyphenyl]-3-(3-fluorophenyl)-5-oxo-4,5,6,7-tetrahydrothieno[3,2-b]pyridine-2-carboxylic acid] | 1.142 | 1.412 | 
19 | CCOc1cc(C2CC(=O)Nc3c2sc(C(=O)O)c3-c2cccc(F)c2)ccc1OCC(N)=O (centres unmarked) [Entry 198, 7-[4-(2-amino-2-oxoethoxy)-3-ethoxyphenyl]-3-(3-fluorophenyl)-5-oxo-4,5,6,7-tetrahydrothieno[3,2-b]pyridine-2-carboxylic acid] | 1.084 | 1.264 | 
20 | COC(=O)c1c(NC(=O)c2ccccc2C(=O)O)sc2c1CCCC2 [Entry 199, 2-({[3-(methoxycarbonyl)-4,5,6,7-tetrahydro-1-benzothien-2-yl]amino}carbonyl)benzoic acid] | 1.199 | 1.607 | 
